Experiments:
[1] = target: His6-TEV-PDGFRβ (557-1016) (Homo sapiens (Human), UniProt P09619); test: PDGFRβ HTRF Assay; format: biochemical; conditions: read-out: PDGFR HTRF IC50
In short: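 Human PDGFRβ (557-1016) pre-incubated with compound for 30 min at RT in pH 7.5 HEPES/MgCl2/EGTA/Brij-35/DTT buffer. Reaction started with ATP and TK-biotin peptide, run 3 h at RT, then quenched with EDTA-containing Eu-cryptate antibody/streptavidin-XL665. HTRF 665/620 nm ratio read after 60 min; percent inhibition relative to DMSO and 10 μM imatinib controls.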

[2] = target: Tb-labeled inactive PDGFRβ (Homo sapiens (Human), UniProt P09619); test: PDGFRβ LanthaScreen Assay; format: binding; conditions: read-out: PDGFR Lantha IC50
Sequence of Tb-labeled inactive PDGFRβ (P09619 33-1106): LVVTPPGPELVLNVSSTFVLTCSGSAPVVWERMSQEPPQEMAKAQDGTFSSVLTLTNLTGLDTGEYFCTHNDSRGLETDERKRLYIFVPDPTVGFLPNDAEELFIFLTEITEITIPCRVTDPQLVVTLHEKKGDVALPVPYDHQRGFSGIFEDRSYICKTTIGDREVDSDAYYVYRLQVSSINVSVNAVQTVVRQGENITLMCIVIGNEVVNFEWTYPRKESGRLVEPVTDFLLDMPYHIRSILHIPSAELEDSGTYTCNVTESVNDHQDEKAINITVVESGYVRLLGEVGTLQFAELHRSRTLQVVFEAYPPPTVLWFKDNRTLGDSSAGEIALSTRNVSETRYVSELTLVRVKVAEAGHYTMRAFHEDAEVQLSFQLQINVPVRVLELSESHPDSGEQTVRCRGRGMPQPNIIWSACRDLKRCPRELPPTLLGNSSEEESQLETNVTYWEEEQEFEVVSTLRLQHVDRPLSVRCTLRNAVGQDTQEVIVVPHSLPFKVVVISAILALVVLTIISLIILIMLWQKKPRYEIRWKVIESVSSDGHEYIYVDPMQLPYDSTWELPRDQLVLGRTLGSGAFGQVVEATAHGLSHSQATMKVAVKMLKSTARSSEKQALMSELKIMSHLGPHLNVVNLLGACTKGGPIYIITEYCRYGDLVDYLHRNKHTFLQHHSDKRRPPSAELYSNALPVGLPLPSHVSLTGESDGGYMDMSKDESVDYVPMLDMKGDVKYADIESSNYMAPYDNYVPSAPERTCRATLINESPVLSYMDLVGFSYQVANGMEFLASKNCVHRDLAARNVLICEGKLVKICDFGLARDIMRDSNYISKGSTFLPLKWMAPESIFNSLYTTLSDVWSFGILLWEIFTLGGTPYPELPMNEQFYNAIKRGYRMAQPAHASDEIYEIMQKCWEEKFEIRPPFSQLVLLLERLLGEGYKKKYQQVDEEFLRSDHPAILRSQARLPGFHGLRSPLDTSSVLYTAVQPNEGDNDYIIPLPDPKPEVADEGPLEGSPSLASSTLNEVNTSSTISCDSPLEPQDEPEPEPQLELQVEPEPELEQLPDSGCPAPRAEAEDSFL

Sequence of His6-TEV-PDGFRβ (557-1016) (P09619 557-1016): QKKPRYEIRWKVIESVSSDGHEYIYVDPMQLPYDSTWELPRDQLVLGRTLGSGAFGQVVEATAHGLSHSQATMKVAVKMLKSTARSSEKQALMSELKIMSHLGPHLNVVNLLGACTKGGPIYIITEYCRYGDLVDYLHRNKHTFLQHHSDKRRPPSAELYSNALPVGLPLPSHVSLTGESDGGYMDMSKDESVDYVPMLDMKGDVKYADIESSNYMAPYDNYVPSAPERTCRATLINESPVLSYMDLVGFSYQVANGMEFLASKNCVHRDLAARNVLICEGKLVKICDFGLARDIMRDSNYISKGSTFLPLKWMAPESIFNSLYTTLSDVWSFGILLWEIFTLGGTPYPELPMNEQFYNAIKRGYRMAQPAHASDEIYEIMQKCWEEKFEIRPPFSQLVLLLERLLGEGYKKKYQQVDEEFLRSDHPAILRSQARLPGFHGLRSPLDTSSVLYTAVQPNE

Cc1ncc(NC(=O)CNCC(C)C)cc1NC(=O)c1cnn2cc(-c3cnn4c3OCCC4)sc12 [Example 414, 2-(6,7-dihydro-5H-pyrazolo[5,1-b][1,3]oxazin-3-yl)-N-(5-(2-(isobutylamino)acetamido)-2-methylpyridin-3-yl)pyrazolo[5,1-b]thiazole-7-carboxamide]
IC50 [1]: 0.4 nM
IC50 [2]: 3.3 nM

Cc1ncc(NC(=O)CN2CC(C)(C)C2)cc1NC(=O)c1cnn2cc(-c3cncnc3)sc12 [Example 429, N-(5-(2-(3,3-dimethylazetidin-1-yl)acetamido)-2-methylpyridin-3-yl)-2-(pyrimidin-5-yl)pyrazolo[5,1-b]thiazole-7-carboxamide]
IC50 [1]: 6.3 nM
IC50 [2]: 185 nM

Cc1ncc(NC(=O)CN2CCC[C@@H]2C)cc1NC(=O)c1cnn2cc(-c3cnn4c3CCC4)sc12 [Example 416, (S)-2-(5,6-dihydro-4H-pyrrolo[1,2-b]pyrazol-3-yl)-N-(2-methyl-5-(2-(2-methylpyrrolidin-1-yl)acetamido)pyridin-3-yl)pyrazolo[5,1-b]thiazole-7-carboxamide]
IC50 [1]: 0.2 nM
IC50 [2]: 1.6 nM

Cc1ncc(NC(=O)C[C@H]2CCN(C(C)C)C2)cc1NC(=O)c1cnn2cc(-c3cnn(C)c3)sc12 [Example 465, (R)—N-(5-(2-(1-isopropylpyrrolidin-3-yl)acetamido)-2-methylpyridin-3-yl)-2-(1-methyl-1H-pyrazol-4-yl)pyrazolo[5,1-b]thiazole-7-carboxamide]
IC50 [1]: 3 nM
IC50 [2]: 73.9 nM

Cc1ncc(C(=O)NCC2CCCN2C)cc1NC(=O)c1cnn2cc(-c3cnn4c3CCC4)sc12 (stereo not drawn) [Example 469, 2-(5,6-dihydro-4H-pyrrolo[1,2-b]pyrazol-3-yl)-N-(2-methyl-5-(((1-methylpyrrolidin-2-yl)methyl)carbamoyl)pyridin-3-yl)pyrazolo[5,1-b]thiazole-7-carboxamide]
IC50 [1]: 0.3 nM
IC50 [2]: 5.5 nM

CCCNCC(=O)Nc1cnc(C)c(NC(=O)c2cnn3cc(-c4cnn5c4CCC5)sc23)c1 [Example 456, 2-(5,6-dihydro-4H-pyrrolo[1,2-b]pyrazol-3-yl)-N-(2-methyl-5-(2-(propylamino)acetamido)pyridin-3-yl)pyrazolo[5,1-b]thiazole-7-carboxamide]
IC50 [1]: 0.4 nM
IC50 [2]: 4.7 nM

Cc1ncc(NC(=O)CN2CCC[C@@H]2C)cc1NC(=O)c1cnn2cc(-c3cnn4c3OCCC4)sc12 [Example 413, (S)-2-(6,7-dihydro-5H-pyrazolo[5,1-b][1,3]oxazin-3-yl)-N-(2-methyl-5-(2-(2-methylpyrrolidin-1-yl)acetamido)pyridin-3-yl)pyrazolo[5,1-b]thiazole-7-carboxamide]
IC50 [1]: 0.3 nM
IC50 [2]: 2.9 nM

Cc1ncc(C(=O)NCCN2CCCC2(C)C)cc1NC(=O)c1cnn2cc(-c3cnn4c3CCC4)sc12 [Example 481, 2-(5,6-dihydro-4H-pyrrolo[1,2-b]pyrazol-3-yl)-N-(5-((2-(2,2-dimethylpyrrolidin-1-yl)ethyl)carbamoyl)-2-methylpyridin-3-yl)pyrazolo[5,1-b]thiazole-7-carboxamide]
IC50 [1]: 0.3 nM
IC50 [2]: 2 nM

Cc1ncc(NC(=O)CN2CCCCCC2)cc1NC(=O)c1cnn2cc(-c3cnn4c3OCCC4)sc12 [Example 420, N-(5-(2-(azepan-1-yl)acetamido)-2-methylpyridin-3-yl)-2-(6,7-dihydro-5H-pyrazolo[5,1-b][1,3]oxazin-3-yl)pyrazolo[5,1-b]thiazole-7-carboxamide]
IC50 [1]: 0.2 nM
IC50 [2]: 2.1 nM

Cc1ncc(NC(=O)CN2CCCC2(C)C)cc1NC(=O)c1cnn2cc(-c3cn(C)nc3C)sc12 [Example 444, 2-(1,3-Dimethyl-1H-pyrazol-4-yl)-N-(5-(2-(2,2-dimethylpyrrolidin-1-yl)acetamido)-2-methylpyridin-3-yl)pyrazolo[5,1-b]thiazole-7-carboxamide]
IC50 [1]: 0.2 nM
IC50 [2]: 1.8 nM

Cc1ncc(C(=O)NCCN2CC3CCC2CC3)cc1NC(=O)c1cnn2cc(-c3cnn4c3OCCC4)sc12 [Example 477, N-(5-((2-(2-azabicyclo[2.2.2]octan-2-yl)ethyl)carbamoyl)-2-methylpyridin-3-yl)-2-(6,7-dihydro-5H-pyrazolo[5,1-b][1,3]oxazin-3-yl)pyrazolo[5,1-b]thiazole-7-carboxamide]
IC50 [1]: 0.3 nM
IC50 [2]: 2.3 nM

Cc1ncc(NC(=O)CN2CC(C)(C)C2)cc1NC(=O)c1cnn2cc(-c3cnn(C)c3C)sc12 [Example 434, 2-(1,5-Dimethyl-1H-pyrazol-4-yl)-N-(5-(2-(3,3-dimethylazetidin-1-yl)acetamido)-2-methylpyridin-3-yl)pyrazolo[5,1-b]thiazole-7-carboxamide]
IC50 [1]: 0.2 nM
IC50 [2]: 2.2 nM

Cc1ncc(NC(=O)CN2CC3(CCCCO3)C2)cc1NC(=O)c1cnn2cc(-c3cnn4c3CCC4)sc12 [Example 424, N-(5-(2-(5-oxa-2-azaspiro[3.5]nonan-2-yl)acetamido)-2-methylpyridin-3-yl)-2-(5,6-dihydro-4H-pyrrolo[1,2-b]pyrazol-3-yl)pyrazolo[5,1-b]thiazole-7-carboxamide]
IC50 [1]: 0.3 nM
IC50 [2]: 2.2 nM

Cc1ncc(C(=O)NCCN2CC(C)(C)C2)cc1NC(=O)c1cnn2cc(-c3cnn4c3OCCC4)sc12 [Example 479, 2-(6,7-dihydro-5H-pyrazolo[5,1-b][1,3]oxazin-3-yl)-N-(5-((2-(3,3-dimethylazetidin-1-yl)ethyl)carbamoyl)-2-methylpyridin-3-yl)pyrazolo[5,1-b]thiazole-7-carboxamide]
IC50 [1]: 0.3 nM
IC50 [2]: 2 nM

Cc1ncc(NC(=O)CN2CCCC23CCC3)cc1NC(=O)c1cnn2cc(-c3cnc4n3CCOC4)sc12 [Example 418, N-(5-(2-(5-azaspiro[3.4]octan-5-yl)acetamido)-2-methylpyridin-3-yl)-2-(5,6-dihydro-8H-imidazo[2,1-c][1,4]oxazin-3-yl)pyrazolo[5,1-b]thiazole-7-carboxamide]
IC50 [1]: 0.5 nM
IC50 [2]: 2.9 nM

Cc1ncc(NC(=O)CN2CCCC23CCC3)cc1NC(=O)c1cnn2cc(-c3cnn4c3COCC4)sc12 [Example 417, N-(5-(2-(5-azaspiro[3.4]octan-5-yl)acetamido)-2-methylpyridin-3-yl)-2-(6,7-dihydro-4H-pyrazolo[5,1-c][1,4]oxazin-3-yl)pyrazolo[5,1-b]thiazole-7-carboxamide]
IC50 [1]: 0.4 nM
IC50 [2]: 2.8 nM

Cc1ncc(C(=O)NCCN2CC3CCC2CC3)cc1NC(=O)c1cnn2cc(-c3cnn4c3COCC4)sc12 [Example 459, N-(5-((2-(2-azabicyclo[2.2.2]octan-2-yl)ethyl)carbamoyl)-2-methylpyridin-3-yl)-2-(6,7-dihydro-4H-pyrazolo[5,1-c][1,4]oxazin-3-yl)pyrazolo[5,1-b]thiazole-7-carboxamide]
IC50 [1]: 0.3 nM
IC50 [2]: 1.5 nM

Cc1ncc(NC(=O)CN2CC(C)(C)C2)cc1NC(=O)c1cnn2cc(-c3cnn4c3COCC4)sc12 [Example 476, 2-(6,7-dihydro-4H-pyrazolo[5,1-c][1,4]oxazin-3-yl)-N-(5-(2-(3,3-dimethylazetidin-1-yl)acetamido)-2-methylpyridin-3-yl)pyrazolo[5,1-b]thiazole-7-carboxamide]
IC50 [1]: 0.2 nM
IC50 [2]: 1.7 nM

Cc1ncc(NC(=O)C[C@@H]2CCN(C(C)C)C2)cc1NC(=O)c1cnn2cc(-c3cnn(C)c3)sc12 [Example 464, (S)—N-(5-(2-(1-isopropylpyrrolidin-3-yl)acetamido)-2-methylpyridin-3-yl)-2-(1-methyl-1H-pyrazol-4-yl)pyrazolo[5,1-b]thiazole-7-carboxamide]
IC50 [1]: 5.2 nM
IC50 [2]: 145 nM

Cc1ncc(C(=O)NCCN2CCCC2(C)C)cc1NC(=O)c1cnn2cc(-c3cnn4c3COCC4)sc12 [Example 450, 2-(6,7-dihydro-4H-pyrazolo[5,1-c][1,4]oxazin-3-yl)-N-(5-((2-(2,2-dimethylpyrrolidin-1-yl)ethyl)carbamoyl)-2-methylpyridin-3-yl)pyrazolo[5,1-b]thiazole-7-carboxamide]
IC50 [1]: 0.4 nM
IC50 [2]: 2.4 nM

Cc1ncc(NC(=O)CN2CC(C)(C)C2)cc1NC(=O)c1cnn2cc(-c3cnn(C(F)F)c3)sc12 [Example 428, 2-(1-(difluoromethyl)-1H-pyrazol-4-yl)-N-(5-(2-(3,3-dimethylazetidin-1-yl)acetamido)-2-methylpyridin-3-yl)pyrazolo[5,1-b]thiazole-7-carboxamide]
IC50 [1]: 0.8 nM
IC50 [2]: 17.3 nM

Cc1ncc(C(=O)NCCN2CC(C)(C)C2)cc1NC(=O)c1cnn2cc(-c3cnn4c3CCC4)sc12 [Example 482, 2-(5,6-dihydro-4H-pyrrolo[1,2-b]pyrazol-3-yl)-N-(5-((2-(3,3-dimethylazetidin-1-yl)ethyl)carbamoyl)-2-methylpyridin-3-yl)pyrazolo[5,1-b]thiazole-7-carboxamide]
IC50 [1]: 0.2 nM
IC50 [2]: 1.6 nM

Cc1ncc(NC(=O)CN2CC3(COC3)C2)cc1NC(=O)c1cnn2cc(-c3cnn4c3OCCC4)sc12 [Example 411, N-(5-(2-(2-oxa-6-azaspiro[3.3]heptan-6-yl)acetamido)-2-methylpyridin-3-yl)-2-(6,7-dihydro-5H-pyrazolo[5,1-b][1,3]oxazin-3-yl)pyrazolo[5,1-b]thiazole-7-carboxamide]
IC50 [1]: 0.5 nM
IC50 [2]: 6.6 nM

Cc1ncc(NC(=O)CN2CC(C)(C)C2)cc1NC(=O)c1cnn2cc(-c3cn(C)nc3C)sc12 [Example 430, 2-(1,3-Dimethyl-1H-pyrazol-4-yl)-N-(5-(2-(3,3-dimethylazetidin-1-yl)acetamido)-2-methylpyridin-3-yl)pyrazolo[5,1-b]thiazole-7-carboxamide]
IC50 [1]: 0.2 nM
IC50 [2]: 1.8 nM
